The text below walks through data of patent publication US20060210614A1, “Method of treatment of a metabolic disease using intranasal administration of exendin peptide” (Nastech Pharmaceutical Company Inc., priority 2003, published 2006).

In data set [1] the test system is normal, human-derived tracheal/bronchial epithelial cells (EpiAirway™ Tissue Model). As to conditions: exenatide formulation containing the excipient; LDH and MTT. How it is done: The amount of cell death was assayed by measuring the loss of lactate dehydrogenase (LDH) from the cells using a CytoTox 96 Cytoxicity Assay Kit (Promega Corp., Madison, Wis.). Fresh, cell-free culture medium was used as a blank. 50 μl harvested media (stored at 4° C.) was loaded in a 96-well plate. Substrate Solution (50 μl) was added to each well and the plates were incubated for thirty (30) minutes at ambient temperature in the dark. Following incubation, 50 μl of Stop Solution was added to each well and the reaction was monitored at A490 using an optical density plate reader. Media alone applied to the apical side served as a negative control while triton X served as the positive control for the LDH assay.
The optical density of the samples was measured at A550 on an optical density plate reader (Molecular Devices, Palo Alto, Calif.). Media alone applied to the apical side served as a […] for the MTT assay.
A second round of studies, series B, systematically screened several excipients for their potential to enhance exenatide permeation to a greater degree than the Me-β-CD, DDPC, EDTA, and gelatin combinations. […] As with series A formulations, each formulation was evaluated for exenatide permeation, ability to reduce TER while not adversely affecting cell viability, and formulation physical stability.

Data set [2] has as its system epithelial tissue barrier (EpiAirway™ Tissue Model). Kind of data set: In vitro permeation of Fluorescein-Exendin-4 across the cellular barrier. As to conditions: for Fold increase in exenatide permeation over AKL-225-126-2: one hour incubation, full dose volume. An excerpt: A standard curve was generated over the relevant quantitation range. […] Initial studies focused on optimizing the concentrations of Me-β-CD, DDPC, EDTA and gelatin to enhance exenatide permeation across an epithelial tissue layer.

The nature of data set [3]: Physical stability (clarity, absorbance at 630 nm) after storage at 5° C. How it is done:
In vitro optimization of the exenatide formulation included a preservatives screen. Physical stability after storage at 5° C. was measured for all formulations tested in vitro. Exenatide formulations were placed in 1 cc glass vials and closed with trifoil lined caps and stored at 5° C. for at least two weeks. Physical stability was monitored by measuring clarity. Clarity of a formulation was determined by measuring absorbance at 630 nm, using the μQuant optical density plate reader for each formulation at days 0, 7, and 14. A 200 μL volume from each vial was placed in a 96-well plate and read against a background of water.
Varying concentrations of sodium benzoate (NaBenz) and benzalkonium chloride (BAK), were screened for their effect on physical stability of the three formulations used in in vivo studies. Sodium benzoate was added at […], while BAK was tested at 0.2, 1.0, 2.0, and 4.0 mg/mL. To prepare the samples, varying amounts of stock solutions of the two preservatives were added to the three prepared formulations dosed in the PK study. […] The resulting formulations were stored at 5° C. for 5.5 weeks. Physical stability was monitored by measuring the absorbance of the solution at 630 nm.
Sodium benzoate was added at concentrations of 1.0 to 5.0 mg/mL, while BAK was tested at 0.05, 0.075, and 0.1 mg/mL. To prepare the samples, varying amounts of stock solutions of the two preservatives were added to the formulations prepared in the PK study and the pH was adjusted to 4.5 with HCl as necessary. The resulting formulations were stored at 5° C. for 4 weeks. Physical stability was monitored by measuring the absorbance of the solution at 630 nm.

In data set [4] the test system is aminopeptidases. Conditions: cited from earlier work.
For data set [5] the following is noted: aqueous solution at physiologic pH; cited from earlier work.
For data set [6], the system named is normal, human-derived tracheal/bronchial epithelial cells (EpiAirway™ Tissue Model). Kind of data set: Transepithelial Electrical Resistance (TER) measurements using an in vitro nasal epithelial model. The data set is classed as cell-based. As to conditions: 60 minute exposure. An excerpt: The cell line MatTek Corp. (Ashland, Mass.) was used as the source of normal, human-derived tracheal/bronchial epithelial cells (EpiAirway™ Tissue Model). The cells are highly differentiated and retain all the properties of respiratory epithelial tissue. The cells were provided as inserts grown to confluence on Millipore Milicell-CM filters comprised of transparent hydrophilic Teflon (PTFE). […] TER measurements were accomplished using the Endohm-12 Tissue Resistance Measurement Chamber connected to the EVOM Epithelial Voltohmmeter (World Precision Instruments, Sarasota, Fla.) with the electrode leads. The electrodes and a tissue culture blank insert were equilibrated for at least twenty (20) minutes in phosphate buffered solution with the power off prior to checking calibration. The background resistance was measured with 1.5 mL media in the Endohm tissue chamber and 300 μL media in a blank Millicell-CM insert. […] The background resistance of the blank insert was 5-12 ohms.
TER was measured before and after the sixty (60) minute incubation. […] After the 60 minute incubation with test samples, 200 μL of fresh media was gently added to the apical surface of each test sample insert and final TER was measured for each insert. […] Resistance is expressed as follows: (resistance measured−blank)×0.6 cm^2.

The conditions of data set [7]: anesthetized rats, cited from earlier work.
[8] abbreviates: 5° C. (refrigerated), at least two weeks, absorbance at 630 nm.

Where two headings read alike, the source gives them in different places.

On to `CCCCCCCC/C=C\CCCCCCCC(=O)O` [oleic acid], for which, in data set [1], the “Toxicity / cell viability (in words)” value is recorded as 3 mg/mL oleic acid resulted in lowered cell viability.

With `CCCCCCCCO[C@@H]1O[C@H](CO)[C@@H](O[C@H]2O[C@H](CO)[C@@H](O)[C@H](O)[C@H]2O)[C@H](O)[C@H]1O` [n-octyl-β-D-maltopyranoside, n-Octyl-β-D-maltopyranoside], the “Fold increase in exenatide permeation over AKL-225-126-2” value (“Fold increase in exenatide permeation” below) in data set [2] is “not more than 1.5 fold”.

As to `CCCCCCCCCC(=O)[O-].[Na+]` [sodium caprate], the “Toxicity / cell viability (in words)” value in data set [1] is on record as “low cell viability at 50 mM alone”. Moreover, the “Physical stability / clarity (in words)” value in data set [3] (setting [8]) was “physical instability in the absence of Me-β-CD”.

Take `OC[C@H]1O[C@@H]2O[C@H]3[C@H](O)[C@@H](O)[C@@H](O[C@H]4[C@H](O)[C@@H](O)[C@@H](O[C@H]5[C@H](O)[C@@H](O)[C@@H](O[C@H]6[C@H](O)[C@@H](O)[C@@H](O[C@H]7[C@H](O)[C@@H](O)[C@@H](O[C@H]8[C@H](O)[C@@H](O)[C@@H](O[C@H]1[C@H](O)[C@H]2O)O[C@@H]8CO)O[C@@H]7CO)O[C@@H]6CO)O[C@@H]5CO)O[C@@H]4CO)O[C@@H]3CO` [β-cyclodextrin]: the “Physical stability / clarity (in words)” value in data set [3] (setting [8]) is “became turbid at refrigerated conditions”.

Regarding `CC(C)CC(N)B(O)O` (stereo not drawn) [boro-leucine], in data set [4], the “Times more effective in enzyme inhibition than bestatin” value was “more than 100 times” and the “Times more effective in enzyme inhibition than puromycin” value is “more than 1000 times”.

On to dimethyl-β-cyclodextrin [DMe-β-CD], for which the “Fold increase in exenatide permeation” value in data set [2] is reported as 1.5 fold. The “Toxicity / cell viability (in words)” value in data set [1] is on record as “more toxic to the cells than Me-β-CD”.

For the molecule `CCN(CC)/[N+]([O-])=N/O.CCNCC` [diethylamine/NO], the “Rate (time) of NO release” value in data set [5] is under 3 min.

In the case of triton X, the “Effect on TER (in words)” value in data set [6] was “lowest possible TER”.

As for `CCCCCCCC/C=C\CCCCCCCC(=O)OCCOCC(OCCO)C1OCC(OCCO)C1OCCO` (stereo not drawn) [Tween-80], the “Exenatide permeation across the tissue barrier (in words)” value in data set [2] (human, 1 h) is reported as “failed to enhance exenatide permeation to the same extent as formulation AKL-225-126-2”.

`CCCCCCCCCCCCC[N+](C)(C)Cc1ccccc1` [benzalkonium chloride (BAK), benzalkonium chloride]: the “Toxicity / cell viability (in words)” value in data set [1] is recorded as “decreasing cell viability with increasing BAK concentration”. In data set [3], the “Physical stability / clarity (in words)” value was “remained physically stable for two weeks at 5 °C”.

`NCCN(CCN)/[N+]([O-])=N/O` [diethylenetriamine/NO]: the “Rate (time) of NO release” value in data set [5] was “approximately 20 hours”.

In the case of “human growth hormone: human growth hormone given nasally to anesthetized rats, without and with N-acetyl-L-cysteine”, the “Nasal bioavailability of human growth hormone” value is listed as 12.2% in data set [7] (with N-acetyl-L-cysteine (ACS)) and 7.5% in data set [7] (without N-acetyl-L-cysteine).

In the case of hydroxypropyl-β-cyclodextrin [HP-β-CD], the “Exenatide permeation across the tissue barrier (in words)” value in data set [2] (excipient screen, compared with AKL-225-126-2 or control without enhancers) was “did not increase permeation significantly”.

Take `O=C(O)CN(CCN(CC(=O)O)CC(=O)O)CC(=O)O` [EDTA, ethylene diamine tetraacetic acid]: the “Toxicity / cell viability (in words)” value in data set [1] is given as “at 10 mg/mL EDTA, cell viability began to decrease”.

As to `CCCCCCCCCCCCCCCC(=O)OC(CC(=O)[O-])C[N+](C)(C)C` (racemic) [Palmitoyl-DL-carnitine, palmitoyl-DL-carnitine], in data set [1], the “Toxicity / cell viability (in words)” value was “toxic at high concentrations”. Also, the “Physical stability / clarity (in words)” value in data set [3] (setting [8]) is reported as “physically instable without Me-β-CD”.

`CCCCCCCCO[C@@H]1O[C@H](CO)[C@H](O)[C@H](O)[C@H]1O` [galactopyranoside, n-Octyl-β-D-galactopyranoside]: the “Toxicity / cell viability (in words)” value in data set [1] was “toxic at 10 mg/mL”.

For `CCCCCCCCC(=O)OC[C@H](COP(=O)([O-])OCC[N+](C)(C)C)OC(=O)CCCCCCCC` [dinonanoyl glycero phosphatidylcholine, Di Nonanoyl Glycero Phosphatidylcholine (9:0)], the “Physical stability / clarity (in words)” value in data set [3] (setting [8]) was “becoming turbid in less than two weeks at refrigerated conditions”.

Turning to Dodecanoylsucrose, the “Fold increase in exenatide permeation” value in data set [2] is “not more than 1.5 fold”. In addition, in data set [1], the “Toxicity / cell viability (in words)” value is “toxic at 10 mg/mL”.

With `O=C([O-])c1ccccc1.[Na+]` [sodium benzoate], the “Physical stability / clarity (in words)” value in data set [3] (setting [8]) is 2 mg/mL of more sodium benzoate became turbid within 14 days at 5 °C.

Consider `CCCCCCCC(=O)[O-].[Na+]` [sodium caprylate], for which, in data set [1], the “Toxicity / cell viability (in words)” value is “toxic at 20 mM with Me-β-CD and EDTA”. Also, in data set [3] (setting [8]), the “Physical stability / clarity (in words)” value is recorded as “physical instability in the absence of Me-β-CD”.

For the molecule `CCCCCCCCO[C@H]1O[C@H](CO)[C@@H](O)[C@H](O)[C@H]1O` [Octyl-α-glucopyranoside], the “Fold increase in exenatide permeation” value in data set [2] is reported as “not more than 1.5 fold”.

For the molecule `C[C@H](CCC(=O)NCC(=O)[O-])[C@H]1CC[C@H]2[C@@H]3[C@H](O)C[C@@H]4C[C@H](O)CC[C@]4(C)[C@H]3C[C@H](O)[C@]12C.[Na+]` [Sodium glycocholate, sodium glycocholate], the “Physical stability / clarity (in words)” value in data set [3] (setting [8]) is “physically instable at high concentrations”.
